Measured values: ChEMBL document CHEMBL1201862, “PubChem BioAssay data set” (2004)
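Five compound concentrations were applied to cells in 96-well plates for 48 hours; endpoints were derived by simple linear interpolation of the resulting dose-response curve. Here, GI50 denotes the concentration required for 50% inhibition of growth.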 Activity calls are given as the source filed them. No stated cut-off is given here; in the data, active = GI50 up to about 1.1 µM and inactive = higher.

What was measured:
Test in all cases: NCI anticancer screen, dose series, 48 h
CAKI-1 = system: CAKI-1
KM12 = system: KM12
OVCAR-3 = system: OVCAR-3
ACHN = system: ACHN
HCT-15 = system: HCT-15
NCI-H522 = system: NCI-H522
RXF 393 = system: RXF 393
K562 = system: K562
NCI-H23 = system: NCI-H23
MOLT-4 = system: MOLT-4
OVCAR-8 = system: OVCAR-8
SNB-19 = system: SNB-19
CCRF-CEM = system: CCRF-CEM
NCI-H226 = system: NCI-H226
HT-29 = system: HT-29
DMS-114 = system: DMS-114
DMS-273 = system: DMS-273
786-0 = system: 786-0
IGROV-1 = system: IGROV-1
LOX IMVI = system: LOX IMVI
A498 = system: A498
LXFL 529 = system: LXFL 529
UACC-62 = system: UACC-62
SNB-78 = system: SNB-78
SF-268 = system: SF-268
M14 = system: M14
COLO 205 = system: COLO 205
SK-MEL-5 = system: SK-MEL-5
Malme-3M = system: Malme-3M
HOP-62 = system: HOP-62
SK-MEL-2 = system: SK-MEL-2
NCI-H460 = system: NCI-H460
OVCAR-4 = system: OVCAR-4
SF-539 = system: SF-539
SW-620 = system: SW-620
UO-31 = system: UO-31
RPMI-8226 = system: RPMI-8226
HCT-116 = system: HCT-116
U-251 = system: U-251
SN12C = system: SN12C
SK-MEL-28 = system: SK-MEL-28
M19-MEL = system: M19-MEL
EKVX = system: EKVX
TK-10 = system: TK-10
DLD-1 = system: DLD-1
OVCAR-5 = system: OVCAR-5
HCC 2998 = system: HCC 2998
KM-20L2 = system: KM-20L2
A549 = system: A549
SNB-75 = system: SNB-75
HOP-18 = system: HOP-18
HL-60 = system: HL-60
HOP-92 = system: HOP-92
SF-295 = system: SF-295
UACC-257 = system: UACC-257
SK-OV-3 = system: SK-OV-3

Which GI50 (CAKI-1) does the source give for `CSc1ccc2c(cc1=O)[C@@H](NC(=O)c1ccc(Cl)cc1)CCc1cc(O)c(O)c(O)c1-2` here?
The GI50 was 45.9 µM (inactive).

And the GI50 (KM12)?
The GI50 was 40.4 µM (inactive).

What about the GI50 (OVCAR-3) of the same compound?
The GI50 was 23.2 µM (inactive).

And the GI50 (ACHN)?
Its GI50 is > 100 µM (inactive).

What about the GI50 (HCT-15) of the same compound?
Its GI50 is 21.6 µM.

And the GI50 (NCI-H522)?
Its GI50 is 15.4 µM (inactive).

And the GI50 (RXF 393)?
Its GI50 is > 100 µM (inactive).

What about the GI50 (K562) of the same compound?
Its GI50 is 18.2 µM (inactive).

And the GI50 (NCI-H23)?
Its GI50 is 32.1 µM (inactive).

What about the GI50 (MOLT-4) of the same compound?
The GI50 was 26.3 µM (inactive).

What about the GI50 (OVCAR-8) of the same compound?
Its GI50 is 50 µM (inactive).

And the GI50 (SNB-19)?
Its GI50 is 49.5 µM (inactive).

What about the GI50 (CCRF-CEM) of the same compound?
The GI50 was 28.1 µM (inactive).

And the GI50 (NCI-H226)?
Its GI50 is > 100 µM (inactive).

And the GI50 (HT-29)?
The GI50 was > 100 µM (inactive).

What about the GI50 (DMS-114) of the same compound?
Its GI50 is 32.4 µM (inactive).

What about the GI50 (DMS-273) of the same compound?
The GI50 was 50.6 µM (inactive).

And the GI50 (786-0)?
The GI50 was > 100 µM (inactive).

And the GI50 (IGROV-1)?
The GI50 was 22.1 µM (inactive).

What about the GI50 (LOX IMVI) of the same compound?
Its GI50 is 18.6 µM (inactive).

And the GI50 (A498)?
The GI50 was > 100 µM (inactive).

What about the GI50 (LXFL 529) of the same compound?
The GI50 was 33.3 µM (inactive).

What about the GI50 (UACC-62) of the same compound?
Its GI50 is 22.5 µM (inactive).

And the GI50 (SNB-78)?
The GI50 was > 100 µM (inactive).

What about the GI50 (SF-268) of the same compound?
Its GI50 is > 100 µM (inactive).

What about the GI50 (M14) of the same compound?
Its GI50 is 34.7 µM (inactive).

And the GI50 (COLO 205)?
The GI50 was 62.5 µM (inactive).

And the GI50 (SK-MEL-5)?
The GI50 was 50.4 µM (inactive).

And the GI50 (Malme-3M)?
Its GI50 is > 100 µM (inactive).

What about the GI50 (HOP-62) of the same compound?
Its GI50 is 57.4 µM (inactive).

What about the GI50 (SK-MEL-2) of the same compound?
The GI50 was > 100 µM (inactive).

What about the GI50 (NCI-H460) of the same compound?
The GI50 was 43.5 µM (inactive).

What about the GI50 (OVCAR-4) of the same compound?
The GI50 was 29.6 µM (inactive).

And the GI50 (SF-539)?
The GI50 was 29.8 µM (inactive).

What about the GI50 (SW-620) of the same compound?
Its GI50 is 19.5 µM (inactive).

And the GI50 (UO-31)?
The GI50 was > 100 µM (inactive).

What about the GI50 (RPMI-8226) of the same compound?
The GI50 was 23.3 µM (inactive).

And the GI50 (HCT-116)?
Its GI50 is 18.2 µM (inactive).

And the GI50 (U-251)?
The GI50 was 21.8 µM (inactive).

And the GI50 (SN12C)?
The GI50 was 24.5 µM (inactive).

And the GI50 (SK-MEL-28)?
Its GI50 is 80 µM (inactive).

And the GI50 (M19-MEL)?
Its GI50 is 31.1 µM (inactive).

What about the GI50 (EKVX) of the same compound?
The GI50 was 69.2 µM (inactive).

What about the GI50 (TK-10) of the same compound?
Its GI50 is > 100 µM (inactive).

What about the GI50 (DLD-1) of the same compound?
Its GI50 is 26.1 µM (inactive).

What about the GI50 (OVCAR-5) of the same compound?
The GI50 was > 100 µM (inactive).

And the GI50 (HCC 2998)?
The GI50 was > 100 µM (inactive).

What about the GI50 (KM-20L2) of the same compound?
The GI50 was > 100 µM (inactive).

And the GI50 (A549)?
The GI50 was 53 µM (inactive).

What about the GI50 (SNB-75) of the same compound?
The GI50 was 27.7 µM (inactive).

What about the GI50 (HOP-18) of the same compound?
Its GI50 is > 100 µM (inactive).

What about the GI50 (HL-60) of the same compound?
The GI50 was 27.5 µM (inactive).

What about the GI50 (HOP-92) of the same compound?
The GI50 was > 100 µM (inactive).

What about the GI50 (SF-295) of the same compound?
Its GI50 is 38.5 µM (inactive).

What about the GI50 (UACC-257) of the same compound?
The GI50 was > 100 µM (inactive).

And the GI50 (SK-OV-3)?
The GI50 was > 100 µM (inactive).
